Results published in the supplement of paper PMC10307832.

Each cell line was assayed with Cc1ccccc1C(C(=O)NC1CCCCC1)N(C(=O)Cn1ccnc1C)c1cccc(F)c1 [IDH-C35] (assay: relative viability (nuclei count vs DMSO), 5 days (fraction); higher = more cells survive). Details: 8 µM.
How it was run: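 Lung cancer cell lines in 1536-well plates were kept overnight at 37 °C, then pinned with five library-drug doses (not always all listed) spaced by √10 on vehicle-anchored plates. After 5 days without medium change, cells were fixed, permeabilised and Hoechst-stained in one step, imaged at 4×, and nuclei were counted with MetaXpress. Viability is treated-well nuclei divided by vehicle-well nuclei, taken as the median over plates. Plates passed only with control CV below 25% and at least one doubling.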
Work on PC-3 [JPC-3] yielded a relative viability of 1.04.

Each cell line was assayed with Cc1ccccc1C(C(=O)NC1CCCCC1)N(C(=O)Cn1ccnc1C)c1cccc(F)c1 [IDH-C35] + CS(=O)(=O)CCNCc1ccc(-c2ccc3ncnc(Nc4ccc(OCc5cccc(F)c5)c(Cl)c4)c3c2)o1 [Lapatinib] (partner 2 µM) (assay: relative viability (nuclei count vs DMSO), 5 days (fraction); higher = more cells survive). Details: first compound 0.08 µM.
How it was run: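 After 5 days of treatment, lung cancer cells in 1536-well plates were fixed and stained in a single step (final 0.05% Triton X-100, 1% formaldehyde, 1 ug/ml Hoechst) and their nuclei counted on 4× images. Treatment had been applied by pin tool the day after seeding as one drug alone or as a fixed anchor-drug dose with five library-drug doses (not always all listed) in √10 steps. Relative viability is the nuclei count of treated wells divided by that of vehicle wells, and values are medians of duplicate plates.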
NCI-H1395 showed a relative viability of 1.
Cell Line 201T has a relative viability of 1.05.
With NCI-H1915 the relative viability was 0.962.
Cell Line HCC-827 has a relative viability of 0.183.
LXF-289 was tested, and the relative viability was 0.9.
For NCI-H23, the relative viability was 0.988.
With NCI-H1299 the relative viability was 1.02.
Work on NCI-H647 yielded a relative viability of 1.01.
In the case of CAL-12T, the relative viability is reported as 0.655.
With NCI-H1651 the relative viability was 0.849.
With EPLC-272H the relative viability was 1.21.
For NCI-H2228, the relative viability was 1.02.
For NCI-H1792, the relative viability was 0.806.
NCI-H1355 was tested, and the relative viability was 1.03.
For NCI-H3122, the relative viability was 1.06.
NCI-H1437 showed a relative viability of 0.942.
Cell Line NCI-H1755 has a relative viability of 1.08.
NCI-H2023 gave a relative viability of 0.938.
Cell Line HCC-15 has a relative viability of 0.892.
NCI-H1793 was tested, and the relative viability was 0.652.
PC-14 gave a relative viability of 0.361.
In the case of EKVX, the relative viability is reported as 0.201.
LC-2-ad gave a relative viability of 0.998.
Cell Line NCI-H1563 has a relative viability of 1.11.
NCI-H1944 showed a relative viability of 0.858.
In the case of NCI-H1975, the relative viability is reported as 0.833.
RERF-LC-KJ was tested, and the relative viability was 0.939.
Work on ABC-1 yielded a relative viability of 1.3.
With NCI-H358 the relative viability was 0.502.
For NCI-H650, the relative viability was 0.588.
Work on PC-3 [JPC-3] yielded a relative viability of 0.431.

Same assay, conditions: first compound 0.253 µM
Work on NCI-H1395 yielded a relative viability of 0.928.
Cell Line 201T has a relative viability of 1.04.
Cell Line NCI-H1915 has a relative viability of 0.996.
HCC-827 showed a relative viability of 0.211.
LXF-289 showed a relative viability of 0.893.
Cell Line NCI-H23 has a relative viability of 1.15.
With NCI-H1299 the relative viability was 0.975.
NCI-H647 showed a relative viability of 1.08.
CAL-12T gave a relative viability of 0.578.
Work on NCI-H1651 yielded a relative viability of 0.828.
EPLC-272H was tested, and the relative viability was 1.04.
NCI-H2228 gave a relative viability of 0.984.
For NCI-H1792, the relative viability was 0.893.
With NCI-H1355 the relative viability was 0.976.
For NCI-H3122, the relative viability was 0.951.
NCI-H1437 showed a relative viability of 0.807.
Cell Line NCI-H1755 has a relative viability of 1.03.
In the case of NCI-H2023, the relative viability is reported as 0.921.
Cell Line HCC-15 has a relative viability of 0.776.
NCI-H1793 gave a relative viability of 0.648.
PC-14 showed a relative viability of 0.304.
EKVX showed a relative viability of 0.205.
For LC-2-ad, the relative viability was 0.978.
NCI-H1563 gave a relative viability of 0.955.
NCI-H1944 gave a relative viability of 0.824.
For NCI-H1975, the relative viability was 0.86.
With RERF-LC-KJ the relative viability was 0.856.
In the case of ABC-1, the relative viability is reported as 1.
NCI-H358 showed a relative viability of 0.503.
For NCI-H650, the relative viability was 0.824.
With PC-3 [JPC-3] the relative viability was 0.486.

Same assay, conditions: first compound 0.8 µM
NCI-H1395 gave a relative viability of 1.08.
In the case of 201T, the relative viability is reported as 1.02.
NCI-H1915 gave a relative viability of 0.974.
Work on HCC-827 yielded a relative viability of 0.173.
With LXF-289 the relative viability was 0.91.
Cell Line NCI-H23 has a relative viability of 1.23.
NCI-H1299 showed a relative viability of 0.967.
In the case of NCI-H647, the relative viability is reported as 0.999.
Cell Line CAL-12T has a relative viability of 0.728.
Cell Line NCI-H1651 has a relative viability of 0.954.
Work on EPLC-272H yielded a relative viability of 0.912.
Cell Line NCI-H2228 has a relative viability of 0.925.
NCI-H1792 was tested, and the relative viability was 0.87.
NCI-H1355 showed a relative viability of 0.945.
Work on NCI-H3122 yielded a relative viability of 1.04.
For NCI-H1437, the relative viability was 0.776.
For NCI-H1755, the relative viability was 0.992.
Cell Line NCI-H2023 has a relative viability of 0.83.
Cell Line HCC-15 has a relative viability of 0.931.
For NCI-H1793, the relative viability was 0.833.
Cell Line PC-14 has a relative viability of 0.316.
In the case of EKVX, the relative viability is reported as 0.208.
LC-2-ad gave a relative viability of 0.924.
NCI-H1563 showed a relative viability of 0.96.
NCI-H1944 showed a relative viability of 0.81.
With NCI-H1975 the relative viability was 0.85.
For RERF-LC-KJ, the relative viability was 0.91.
ABC-1 showed a relative viability of 1.03.
With NCI-H358 the relative viability was 0.445.
In the case of NCI-H650, the relative viability is reported as 0.85.
For PC-3 [JPC-3], the relative viability was 0.444.

Same assay, conditions: first compound 2.53 µM
With NCI-H1395 the relative viability was 1.09.
For 201T, the relative viability was 0.973.
NCI-H1915 gave a relative viability of 0.934.
In the case of HCC-827, the relative viability is reported as 0.218.
Cell Line LXF-289 has a relative viability of 0.965.
With NCI-H23 the relative viability was 1.06.
NCI-H1299 showed a relative viability of 0.936.
For NCI-H647, the relative viability was 1.09.
Work on CAL-12T yielded a relative viability of 0.749.
NCI-H1651 showed a relative viability of 1.
With NCI-H2228 the relative viability was 0.985.
In the case of NCI-H1792, the relative viability is reported as 0.98.
Cell Line NCI-H1355 has a relative viability of 0.97.
Work on NCI-H3122 yielded a relative viability of 1.
For NCI-H1437, the relative viability was 0.904.
In the case of NCI-H1755, the relative viability is reported as 1.03.
NCI-H2023 was tested, and the relative viability was 0.263.
With HCC-15 the relative viability was 0.776.
NCI-H1793 was tested, and the relative viability was 0.674.
In the case of PC-14, the relative viability is reported as 0.363.
For EKVX, the relative viability was 0.183.
LC-2-ad showed a relative viability of 0.904.
In the case of NCI-H1563, the relative viability is reported as 0.912.
For NCI-H1944, the relative viability was 0.774.
NCI-H1975 gave a relative viability of 0.974.
RERF-LC-KJ was tested, and the relative viability was 0.802.
Work on ABC-1 yielded a relative viability of 1.16.
NCI-H358 was tested, and the relative viability was 0.534.
Work on PC-3 [JPC-3] yielded a relative viability of 0.44.

Same assay, conditions: first compound 8 µM
With NCI-H1395 the relative viability was 0.891.
For 201T, the relative viability was 1.01.
Cell Line NCI-H1915 has a relative viability of 0.976.
Work on HCC-827 yielded a relative viability of 0.228.
For LXF-289, the relative viability was 0.877.
NCI-H23 showed a relative viability of 0.97.
For NCI-H1299, the relative viability was 0.898.
With NCI-H647 the relative viability was 0.86.
CAL-12T gave a relative viability of 0.7.
NCI-H1651 gave a relative viability of 0.76.
Work on EPLC-272H yielded a relative viability of 0.802.
In the case of NCI-H2228, the relative viability is reported as 0.931.
NCI-H1792 showed a relative viability of 0.973.
For NCI-H1355, the relative viability was 0.934.
Work on NCI-H3122 yielded a relative viability of 1.03.
With NCI-H1437 the relative viability was 0.812.
For NCI-H1755, the relative viability was 1.02.
NCI-H2023 gave a relative viability of 0.808.
In the case of HCC-15, the relative viability is reported as 0.781.
NCI-H1793 was tested, and the relative viability was 0.652.
For PC-14, the relative viability was 0.423.
Cell Line EKVX has a relative viability of 0.205.
For LC-2-ad, the relative viability was 0.973.
NCI-H1563 showed a relative viability of 1.09.
For NCI-H1944, the relative viability was 0.832.
Work on NCI-H1975 yielded a relative viability of 0.928.
For RERF-LC-KJ, the relative viability was 0.773.
Cell Line ABC-1 has a relative viability of 1.06.
Cell Line NCI-H358 has a relative viability of 0.508.
With NCI-H650 the relative viability was 0.884.
